Source: ChEMBL document CHEMBL1201862, “PubChem BioAssay data set” (2004)
The source made the active and inactive calls.

How the values were obtained:
[1] = molecular target: T1, Runt-related transcription factor 1/Core-binding factor subunit beta (Homo sapiens, UniProt Q01196+Q13951); experiment: disruptors of Runt domain/CBFb-SMMHC interaction – biochemical, FRET, Cerulean-Runt, Venus-CBFb-SMMHC, uHTS, […] (AID 1434); format: protein assay
[2] = molecular target: T1, Runt-related transcription factor 1/Core-binding factor subunit beta; experiment: Runt domain/CBFb-SMMHC interaction disruptors – biochemical, TR-FRET (AID 1438); format: protein assay
[3] = molecular target: T2, Endoribonuclease toxin MazF (Escherichia coli K-12, UniProt P0AE70); experiment: activation of MazEF endoribonuclease cleavage – biochemical, fluorescence, single-stranded RNA substrate, uHTS hits, dose response (AID 588481); format: functional
T2 sequence (P0AE70 whole entry): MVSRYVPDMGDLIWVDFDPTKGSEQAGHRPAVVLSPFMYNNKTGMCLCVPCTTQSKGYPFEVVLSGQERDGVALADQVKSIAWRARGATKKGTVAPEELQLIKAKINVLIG

[4] = molecular target: T2, Endoribonuclease toxin MazF; experiment: substrate-only fluorescence increase artefacts – biochemical, single-stranded RNase substrate, counter-screen for MazEF activator project, dose response (AID 588502); format: functional
[5] = molecular target: T3, Voltage-gated N-type calcium channel alpha-1B subunit/Amyloid beta A4 precursor protein-binding family A member 1 (Homo sapiens, UniProt Q00975+Q02410); format: protein assay
T3 sequence (Q00975 whole entry): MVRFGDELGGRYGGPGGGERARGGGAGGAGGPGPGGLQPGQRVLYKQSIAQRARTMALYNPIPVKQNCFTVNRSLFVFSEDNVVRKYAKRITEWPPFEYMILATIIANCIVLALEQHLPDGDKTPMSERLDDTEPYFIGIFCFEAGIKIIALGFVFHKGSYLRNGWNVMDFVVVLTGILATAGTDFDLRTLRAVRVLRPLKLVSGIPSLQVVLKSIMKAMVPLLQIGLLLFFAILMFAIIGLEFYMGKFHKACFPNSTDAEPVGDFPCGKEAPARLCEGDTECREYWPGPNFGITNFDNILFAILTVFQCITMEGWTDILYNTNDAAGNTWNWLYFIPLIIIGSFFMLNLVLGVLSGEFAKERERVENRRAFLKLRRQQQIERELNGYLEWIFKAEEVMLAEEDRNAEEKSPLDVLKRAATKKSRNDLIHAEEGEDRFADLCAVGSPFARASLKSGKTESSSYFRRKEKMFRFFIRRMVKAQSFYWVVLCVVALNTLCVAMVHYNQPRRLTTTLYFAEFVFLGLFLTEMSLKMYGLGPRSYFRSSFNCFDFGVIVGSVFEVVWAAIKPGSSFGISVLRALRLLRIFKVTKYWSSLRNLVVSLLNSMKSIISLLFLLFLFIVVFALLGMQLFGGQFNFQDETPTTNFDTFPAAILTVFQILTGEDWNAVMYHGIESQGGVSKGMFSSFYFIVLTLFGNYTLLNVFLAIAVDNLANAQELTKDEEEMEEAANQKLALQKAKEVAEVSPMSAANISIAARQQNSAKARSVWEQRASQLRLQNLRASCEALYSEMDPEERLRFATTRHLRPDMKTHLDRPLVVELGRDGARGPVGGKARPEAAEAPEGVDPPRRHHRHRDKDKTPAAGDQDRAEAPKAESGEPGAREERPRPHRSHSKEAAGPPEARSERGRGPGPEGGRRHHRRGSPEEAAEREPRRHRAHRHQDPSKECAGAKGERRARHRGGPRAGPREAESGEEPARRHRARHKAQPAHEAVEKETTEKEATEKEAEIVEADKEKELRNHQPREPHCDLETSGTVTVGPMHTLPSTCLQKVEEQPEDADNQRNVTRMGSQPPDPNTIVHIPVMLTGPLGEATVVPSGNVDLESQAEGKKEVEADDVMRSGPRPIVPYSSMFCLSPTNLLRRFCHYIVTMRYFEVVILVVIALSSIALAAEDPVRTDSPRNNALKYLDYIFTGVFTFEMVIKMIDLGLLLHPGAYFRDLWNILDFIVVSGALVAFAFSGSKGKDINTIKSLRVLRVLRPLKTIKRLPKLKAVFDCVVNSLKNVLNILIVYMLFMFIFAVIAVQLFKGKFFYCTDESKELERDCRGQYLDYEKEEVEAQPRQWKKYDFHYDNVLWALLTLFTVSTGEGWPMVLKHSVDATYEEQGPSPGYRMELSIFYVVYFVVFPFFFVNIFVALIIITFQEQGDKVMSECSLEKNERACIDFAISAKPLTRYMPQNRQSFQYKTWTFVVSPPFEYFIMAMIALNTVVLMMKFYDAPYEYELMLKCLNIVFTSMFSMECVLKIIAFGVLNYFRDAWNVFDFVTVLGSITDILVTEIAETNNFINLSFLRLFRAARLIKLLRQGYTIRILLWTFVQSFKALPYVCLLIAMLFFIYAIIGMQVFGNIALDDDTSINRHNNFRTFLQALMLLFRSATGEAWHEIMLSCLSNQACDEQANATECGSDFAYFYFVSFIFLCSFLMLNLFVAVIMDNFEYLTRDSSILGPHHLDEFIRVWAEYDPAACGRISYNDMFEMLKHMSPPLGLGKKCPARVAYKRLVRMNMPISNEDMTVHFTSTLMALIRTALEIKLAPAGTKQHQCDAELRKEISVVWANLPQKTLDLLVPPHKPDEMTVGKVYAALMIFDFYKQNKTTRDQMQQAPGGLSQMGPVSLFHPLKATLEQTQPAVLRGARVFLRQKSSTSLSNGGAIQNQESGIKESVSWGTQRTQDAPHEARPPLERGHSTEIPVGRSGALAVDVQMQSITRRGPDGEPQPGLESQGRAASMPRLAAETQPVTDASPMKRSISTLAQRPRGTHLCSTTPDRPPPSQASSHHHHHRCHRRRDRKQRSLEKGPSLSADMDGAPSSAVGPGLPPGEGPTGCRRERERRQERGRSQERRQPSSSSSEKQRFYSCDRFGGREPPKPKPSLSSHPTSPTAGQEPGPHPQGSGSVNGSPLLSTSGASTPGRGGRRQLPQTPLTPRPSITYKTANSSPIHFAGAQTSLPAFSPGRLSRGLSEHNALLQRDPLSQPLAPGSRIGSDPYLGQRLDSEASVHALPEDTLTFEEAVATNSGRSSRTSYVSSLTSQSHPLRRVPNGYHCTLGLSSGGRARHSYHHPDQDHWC
T3 sequence (Q02410 whole entry): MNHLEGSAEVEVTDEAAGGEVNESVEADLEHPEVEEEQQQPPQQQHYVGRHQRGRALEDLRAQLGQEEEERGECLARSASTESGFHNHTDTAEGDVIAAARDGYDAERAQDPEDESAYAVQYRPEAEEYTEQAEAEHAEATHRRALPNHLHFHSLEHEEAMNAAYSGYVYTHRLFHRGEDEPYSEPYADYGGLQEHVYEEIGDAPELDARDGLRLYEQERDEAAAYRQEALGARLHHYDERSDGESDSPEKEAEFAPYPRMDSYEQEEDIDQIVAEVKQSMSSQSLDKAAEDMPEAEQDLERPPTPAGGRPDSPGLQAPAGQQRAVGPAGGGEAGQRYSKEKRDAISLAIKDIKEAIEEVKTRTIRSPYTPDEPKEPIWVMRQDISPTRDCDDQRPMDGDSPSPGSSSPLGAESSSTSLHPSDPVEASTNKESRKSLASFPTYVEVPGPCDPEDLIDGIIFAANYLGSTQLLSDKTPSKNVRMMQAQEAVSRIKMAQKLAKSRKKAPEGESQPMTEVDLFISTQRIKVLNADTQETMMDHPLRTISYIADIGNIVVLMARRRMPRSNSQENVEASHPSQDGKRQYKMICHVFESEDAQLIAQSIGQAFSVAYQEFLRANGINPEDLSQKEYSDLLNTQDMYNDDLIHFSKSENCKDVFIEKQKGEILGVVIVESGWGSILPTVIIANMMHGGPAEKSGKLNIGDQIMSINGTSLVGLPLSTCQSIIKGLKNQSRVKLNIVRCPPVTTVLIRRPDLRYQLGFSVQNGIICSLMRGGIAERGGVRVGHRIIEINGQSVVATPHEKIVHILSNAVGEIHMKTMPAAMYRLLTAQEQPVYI

[6] = molecular target: T3, Voltage-gated N-type calcium channel alpha-1B subunit/Amyloid beta A4 precursor protein-binding family A member 1; format: protein assay; remark: listed apart in the source
[7] = molecular target: Potassium voltage-gated channel subfamily KQT member 2 (Rattus norvegicus, UniProt O88943); experiment: potentiation of rat KCNQ2 current – cell-based, retigabine-insensitive compounds, dose response (AID 2654); format: functional
Chain of Potassium voltage-gated channel subfamily KQT member 2 (O88943 whole entry): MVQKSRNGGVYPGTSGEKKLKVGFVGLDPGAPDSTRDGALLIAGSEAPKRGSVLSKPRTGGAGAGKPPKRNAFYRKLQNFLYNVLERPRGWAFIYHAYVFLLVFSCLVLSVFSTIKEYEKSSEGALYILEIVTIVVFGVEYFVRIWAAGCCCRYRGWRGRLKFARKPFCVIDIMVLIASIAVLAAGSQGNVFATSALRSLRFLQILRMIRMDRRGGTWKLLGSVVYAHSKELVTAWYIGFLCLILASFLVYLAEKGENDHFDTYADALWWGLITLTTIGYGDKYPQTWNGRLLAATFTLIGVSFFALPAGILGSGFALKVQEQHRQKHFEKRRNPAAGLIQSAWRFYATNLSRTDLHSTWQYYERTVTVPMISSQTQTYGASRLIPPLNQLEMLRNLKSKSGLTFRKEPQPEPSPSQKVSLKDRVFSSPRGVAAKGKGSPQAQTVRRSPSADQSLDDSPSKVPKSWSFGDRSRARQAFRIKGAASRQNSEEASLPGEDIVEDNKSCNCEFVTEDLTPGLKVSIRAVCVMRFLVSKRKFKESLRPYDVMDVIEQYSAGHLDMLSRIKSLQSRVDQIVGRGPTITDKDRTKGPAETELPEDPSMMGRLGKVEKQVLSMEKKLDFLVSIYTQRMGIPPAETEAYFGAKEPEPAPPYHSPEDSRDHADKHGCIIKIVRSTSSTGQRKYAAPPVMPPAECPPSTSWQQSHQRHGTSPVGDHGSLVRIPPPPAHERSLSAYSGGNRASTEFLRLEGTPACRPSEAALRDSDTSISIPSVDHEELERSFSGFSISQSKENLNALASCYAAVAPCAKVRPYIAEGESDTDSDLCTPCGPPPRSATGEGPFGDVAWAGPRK

[8] = molecular target: T4, Hexokinase HKDC1 (Homo sapiens, UniProt Q2TB90); experiment: inhibition of HKDC1 glucose phosphorylation – biochemical, W721R variant, dose response (AID 504729); format: functional
T4 sequence (Q2TB90 whole entry): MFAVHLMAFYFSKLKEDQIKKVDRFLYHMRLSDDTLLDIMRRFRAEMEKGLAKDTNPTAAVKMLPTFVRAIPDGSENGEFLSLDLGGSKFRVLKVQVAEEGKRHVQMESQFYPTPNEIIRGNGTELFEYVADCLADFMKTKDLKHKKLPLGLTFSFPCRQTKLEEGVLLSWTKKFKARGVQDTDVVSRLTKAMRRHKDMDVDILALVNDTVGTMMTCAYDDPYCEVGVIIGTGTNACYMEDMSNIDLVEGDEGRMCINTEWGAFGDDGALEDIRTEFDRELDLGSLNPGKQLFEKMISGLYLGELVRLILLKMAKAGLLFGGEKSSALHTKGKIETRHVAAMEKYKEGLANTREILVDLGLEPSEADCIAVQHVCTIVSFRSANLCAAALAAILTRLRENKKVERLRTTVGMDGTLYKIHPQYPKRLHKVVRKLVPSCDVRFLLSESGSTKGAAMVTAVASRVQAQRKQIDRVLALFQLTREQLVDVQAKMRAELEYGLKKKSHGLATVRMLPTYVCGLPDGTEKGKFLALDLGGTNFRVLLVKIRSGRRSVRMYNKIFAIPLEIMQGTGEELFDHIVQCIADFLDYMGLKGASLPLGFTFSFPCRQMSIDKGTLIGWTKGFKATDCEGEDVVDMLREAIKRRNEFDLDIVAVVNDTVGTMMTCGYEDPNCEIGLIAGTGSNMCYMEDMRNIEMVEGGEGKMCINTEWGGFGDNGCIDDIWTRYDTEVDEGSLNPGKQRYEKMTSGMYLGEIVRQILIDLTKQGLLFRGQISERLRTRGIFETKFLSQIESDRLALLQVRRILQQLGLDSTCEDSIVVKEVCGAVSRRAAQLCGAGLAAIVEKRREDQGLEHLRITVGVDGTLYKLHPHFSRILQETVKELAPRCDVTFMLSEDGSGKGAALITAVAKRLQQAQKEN

[9] = molecular target: Trypsin (Sus scrofa, UniProt P00761); experiment: trypsin protease activity blockade – biochemical, quenched peptide fluorescence, cherry-pick, selectivity assay for Rce1 protease inhibitor project, dose response (AID 488789)
[10] = system: HeLa; experiment: ATP-based viability loss in HeLa cells – cell-based, CellTiter-Glo luminescence, cherry-pick samples, cytotoxicity control for MITF activator project, dose response (AID 540259); format: functional; details: Homo sapiens
[11] = HEK-293T cell viability reduction – luminescence, B-cell screen hits, cytotoxicity control for BCR NF-kB inhibitor project, dose response (AID 489021); format: functional, cell-based;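 also: HEK-293T cells carrying an NF-kB luciferase reporter; cells exposed to compound for about 14 hours before viability readout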
[12] = molecular target: T5, Corticotropin-releasing factor receptor 2/Corticotropin-releasing factor-binding protein (Homo sapiens, UniProt P24387+Q13324); experiment: Dose Response confirmation of uHTS hits for small molecule antagonists of the CRF-binding protein and CRF-R2 receptor complex.; format: functional; details: read-out: IC50_Mean
T5 sequence (Q13324 whole entry): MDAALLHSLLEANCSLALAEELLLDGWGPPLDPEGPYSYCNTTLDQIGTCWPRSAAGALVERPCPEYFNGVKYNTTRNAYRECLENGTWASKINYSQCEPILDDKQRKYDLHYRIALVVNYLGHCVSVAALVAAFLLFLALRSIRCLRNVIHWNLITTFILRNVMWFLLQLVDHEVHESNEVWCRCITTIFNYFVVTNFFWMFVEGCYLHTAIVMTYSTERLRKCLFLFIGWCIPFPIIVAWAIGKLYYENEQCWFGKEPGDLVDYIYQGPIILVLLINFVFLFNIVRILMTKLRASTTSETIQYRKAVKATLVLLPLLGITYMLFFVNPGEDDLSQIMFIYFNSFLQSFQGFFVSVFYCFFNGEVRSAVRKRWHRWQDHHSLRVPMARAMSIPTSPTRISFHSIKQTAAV
T5 sequence (P24387 whole entry): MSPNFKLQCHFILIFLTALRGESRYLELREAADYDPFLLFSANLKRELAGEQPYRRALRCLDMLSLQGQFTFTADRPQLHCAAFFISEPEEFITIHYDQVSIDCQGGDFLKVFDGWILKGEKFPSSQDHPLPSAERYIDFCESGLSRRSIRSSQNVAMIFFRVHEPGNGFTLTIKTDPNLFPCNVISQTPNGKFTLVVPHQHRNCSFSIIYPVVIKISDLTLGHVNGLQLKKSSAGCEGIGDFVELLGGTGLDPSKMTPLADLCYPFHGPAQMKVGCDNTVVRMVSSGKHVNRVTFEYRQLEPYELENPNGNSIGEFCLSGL

[13] = molecular target: T5, Corticotropin-releasing factor receptor 2/Corticotropin-releasing factor-binding protein; experiment: activators of CRF receptor 2 with binding protein – uHTS hits, confirmation (AID 602473); format: functional; details: read-out: EC50_Mean
[14] = molecular target: Eukaryotic translation initiation factor 4E (Mus musculus, UniProt P63073); experiment: blockers of eIF4G binding by eIF4E – biochemical, TR-FRET, dose response (AID 855); format: functional;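 also: potency for disrupting eIF4E binding to eIF4GI seen as loss of FRET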
Chain of Eukaryotic translation initiation factor 4E (P63073 whole entry, the tested form may be a part): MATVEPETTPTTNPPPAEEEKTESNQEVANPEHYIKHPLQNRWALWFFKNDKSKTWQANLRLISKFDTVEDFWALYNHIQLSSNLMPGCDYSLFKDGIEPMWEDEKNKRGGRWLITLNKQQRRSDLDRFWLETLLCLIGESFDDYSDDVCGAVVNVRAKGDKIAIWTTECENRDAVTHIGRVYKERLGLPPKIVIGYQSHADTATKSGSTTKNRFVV

[15] = molecular target: T6, Carboxy-terminal domain RNA polymerase II polypeptide A small phosphatase 1 (Homo sapiens, UniProt Q9GZU7); experiment: CTDSP1 inhibitors, concentration-response, biochemical, absorbance readout, ultra-high-throughput screen actives (AID 540297); format: functional
T6 sequence (Q9GZU7 whole entry): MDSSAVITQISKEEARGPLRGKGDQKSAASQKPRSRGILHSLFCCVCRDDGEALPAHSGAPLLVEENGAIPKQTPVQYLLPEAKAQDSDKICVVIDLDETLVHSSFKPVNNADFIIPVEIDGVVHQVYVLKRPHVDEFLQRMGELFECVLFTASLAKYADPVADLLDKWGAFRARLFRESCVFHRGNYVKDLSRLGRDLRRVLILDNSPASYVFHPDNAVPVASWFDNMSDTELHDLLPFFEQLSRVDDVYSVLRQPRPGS

[16] = molecular target: Cytochrome P450 2D6 (Homo sapiens, UniProt P10635);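 also: CYP2D6 member of a cytochrome P450 panel assay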
[17] = molecular target: T7, Polyadenylate-binding protein 1 (Homo sapiens, UniProt P11940); experiment: MLLE binding blockers, Cy5 peptide tracer – biochemical, fluorescence polarization, Cy5-PAM2 peptide, secondary, miRNA deadenylation inhibitor project, dose response (AID 602260); format: functional; details: read-out: IC50_Mean
[18] = molecular target: T7, Polyadenylate-binding protein 1; experiment: MLLE domain peptide-binding blockers, IC50 – biochemical, fluorescence polarization, FITC-PAM2 peptide, dose response (AID 602259); format: functional; details: read-out: IC50_Mean
[19] = molecular target: T8, Rac GTPase-activating protein 1 (Homo sapiens, UniProt Q9H0H5); experiment: blockers of MgcRacGAP-driven Rac1 GTP hydrolysis – biochemical, ADP Hunter fluorescence, primary and confirmatory, confirmation (AID 624330); format: functional
T8 sequence (Q9H0H5 whole entry): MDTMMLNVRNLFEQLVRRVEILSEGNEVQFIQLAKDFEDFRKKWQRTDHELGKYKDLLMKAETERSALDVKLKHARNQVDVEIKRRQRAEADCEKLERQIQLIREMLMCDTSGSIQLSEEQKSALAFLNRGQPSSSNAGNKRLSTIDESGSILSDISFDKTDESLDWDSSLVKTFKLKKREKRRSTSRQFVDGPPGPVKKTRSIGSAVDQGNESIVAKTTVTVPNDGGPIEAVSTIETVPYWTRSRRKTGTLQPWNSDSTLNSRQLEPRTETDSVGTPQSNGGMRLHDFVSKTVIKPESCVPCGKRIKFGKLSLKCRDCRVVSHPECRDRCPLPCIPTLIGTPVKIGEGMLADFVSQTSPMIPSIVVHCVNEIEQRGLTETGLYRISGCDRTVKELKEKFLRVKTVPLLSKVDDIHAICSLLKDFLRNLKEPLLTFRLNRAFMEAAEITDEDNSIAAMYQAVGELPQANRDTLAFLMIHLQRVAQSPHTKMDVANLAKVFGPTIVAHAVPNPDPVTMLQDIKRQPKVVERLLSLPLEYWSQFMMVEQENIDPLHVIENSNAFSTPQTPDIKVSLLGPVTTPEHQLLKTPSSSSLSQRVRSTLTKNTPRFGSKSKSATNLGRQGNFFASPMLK

[20] = molecular target: T9, Heat shock factor protein 1 (Mus musculus, UniProt P38532); experiment: decrease of HSF1-responsive luciferase luminescence – cell-based, NIH3T3, dose retest, confirmation (AID 2382); format: functional;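 also: NIH3T3 fibroblasts with HSF1-driven luciferase reporter stressed by proteasome inhibitor MG132; luminescence from HSF1-driven luciferase expression after 8 hours of MG132 stress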
T9 sequence (P38532 whole entry): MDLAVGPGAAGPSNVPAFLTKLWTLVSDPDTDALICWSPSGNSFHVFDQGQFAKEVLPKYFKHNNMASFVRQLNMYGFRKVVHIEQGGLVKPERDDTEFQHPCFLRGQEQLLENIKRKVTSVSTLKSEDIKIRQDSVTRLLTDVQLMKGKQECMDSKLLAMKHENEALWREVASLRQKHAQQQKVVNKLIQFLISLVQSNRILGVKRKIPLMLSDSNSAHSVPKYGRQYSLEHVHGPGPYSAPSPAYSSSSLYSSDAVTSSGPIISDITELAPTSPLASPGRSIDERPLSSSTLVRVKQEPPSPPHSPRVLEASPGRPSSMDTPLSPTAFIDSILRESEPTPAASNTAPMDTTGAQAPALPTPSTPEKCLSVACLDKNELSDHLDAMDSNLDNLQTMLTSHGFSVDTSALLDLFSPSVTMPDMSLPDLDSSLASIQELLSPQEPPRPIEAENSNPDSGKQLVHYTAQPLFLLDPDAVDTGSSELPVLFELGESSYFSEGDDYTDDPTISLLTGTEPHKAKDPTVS

[21] = molecular target: Large T antigen (Simian virus 40, UniProt P03070); format: functional, Betapolyomavirus macacae;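 also: Confirmatory-stage PubChem screen for compounds that inhibit SV40 T antigen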
[22] = molecular target: Dual specificity tyrosine-phosphorylation-regulated kinase 1A (Rattus norvegicus, UniProt Q63470); format: biochemical, Homo sapiens

T1 sequence (Q01196 whole entry, the tested form may be a part): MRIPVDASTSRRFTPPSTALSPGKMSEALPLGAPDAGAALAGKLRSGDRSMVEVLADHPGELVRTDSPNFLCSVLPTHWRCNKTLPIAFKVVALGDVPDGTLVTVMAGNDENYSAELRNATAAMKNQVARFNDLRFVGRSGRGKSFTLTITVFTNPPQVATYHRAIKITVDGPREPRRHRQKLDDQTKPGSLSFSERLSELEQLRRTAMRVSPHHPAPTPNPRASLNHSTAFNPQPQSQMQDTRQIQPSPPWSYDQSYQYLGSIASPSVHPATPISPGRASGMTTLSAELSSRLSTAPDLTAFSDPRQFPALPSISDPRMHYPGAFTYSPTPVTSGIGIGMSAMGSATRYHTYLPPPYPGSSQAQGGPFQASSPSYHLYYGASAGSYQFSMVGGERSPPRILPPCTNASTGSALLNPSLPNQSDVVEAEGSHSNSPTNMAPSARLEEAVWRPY
T1 sequence (Q13951 whole entry, the tested form may be a part): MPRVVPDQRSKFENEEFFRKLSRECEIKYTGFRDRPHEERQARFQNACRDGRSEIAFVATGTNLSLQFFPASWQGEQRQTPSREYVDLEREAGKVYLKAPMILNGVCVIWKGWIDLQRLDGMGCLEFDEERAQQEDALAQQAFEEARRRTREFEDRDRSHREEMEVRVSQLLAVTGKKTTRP

Compound: COc1ccc2nc(N3CCCC3)c(C#N)cc2c1
- IC50 [1]: 2.04 µM (active)
- IC50 [2]: > 100 µM (inactive)
- EC50 [3]: > 99 µM (inactive)
- EC50 [4]: > 99 µM (inactive)

Compound: O=C(CCN1C(=O)/C(=C/c2ccccc2Cl)SC1=S)NC1C=CS(=O)(=O)C1 (configuration not stated)
- IC50 [5]: 5.41 µM (active)
- IC50 [6]: > 50 µM (inactive)

Compound: O=C(Nc1cccnc1)Nc1ccc(F)c(Cl)c1
- EC50 [7]: 4.21 µM (active)

Compound: COc1ccc(OC)c2nc(O)c(CCNC(=O)c3cc4ccccc4o3)cc12
- IC50 [8]: 20.4 µM (inactive)

Compound: O=C(NC1CC1)c1ccc2c(c1)N(Cc1ccccc1)CCS2
- AC50 [9]: 6.54 µM (active)

Compound: Cc1ccc(NC(=O)C2C3/C=C\CCCCC32)cc1 (configuration not stated)
- AC50 [10]: 197 µM (active)

Compound: O=C(NNC(=O)C12CC3CC(CC(C3)C1)C2)c1cccc(O)c1
- IC50 [11]: > 80 µM (inactive)

Compound: CCCCc1ccc(NC(=S)Nc2cccnc2)cc1
- EC50 [7]: 268 µM (active)
- IC50 [12]: > 47.1 µM (inactive)
- EC50 [13]: > 53 µM (inactive)

Compound: N#Cc1ccc(C(=O)NC2CCCCCCC2)cc1
- AC50 [10]: 55 µM (active)

Compound: CN(Cc1ccccc1)C(=O)COC(=O)/C=C/c1ccco1
- IC50 [14]: 50 µM (inactive)
- IC50 [15]: 12.5 µM (active)

Compound: COc1ccc(C(=O)Nc2nnc(SCC(=O)Nc3ccc(NC(C)=O)cc3)s2)c(OC)c1
- IC50 [11]: > 80 µM (inactive)

Compound: CC(C)(C)c1[nH]nc2c1C(c1ccc(OC(=O)c3ccco3)cc1)C(C#N)=C(N)O2 (configuration not stated)
- IC50 [14]: > 64 µM (inactive)
- AC50 [16]: 15.8 µM (inconclusive)

Compound: COc1cccc(Nc2ccc(N3CCCCC3)cc2)c1OC
- AC50 [10]: 252 µM (active)
- IC50 [17]: > 66 µM (inactive)
- IC50 [18]: 21.4 µM (inactive)
- IC50 [19]: 9.65 µM (active)

Compound: CCSc1ccc2nnc(-c3cccc(F)c3)n2n1
- IC50 [14]: > 64 µM (inactive)

Compound: Cc1ccc(/C=C2\SC(=S)N(CCCC(=O)Nc3cccnc3)C2=O)cc1
- EC50 [20]: 0.255 µM (active)
- IC50 [11]: > 80 µM (inactive)

Compound: O=C(Nc1ccc(F)nc1)Nc1cccc(F)c1
- EC50 [7]: 5.76 µM (active)

Compound: N#Cc1c(-c2ccncc2)c2c([nH]c1=O)-c1ccccc1OC2
- IC50 [1]: 1.04 µM (active)
- IC50 [2]: > 100 µM (inactive)

Compound: O=C1NC(=O)/C(=C/c2ccc(O)cc2)S1
- IC50 [21]: 10.1 µM (active)
- AC50 [22]: 0.414 µM (active)
